US8653089B2, “Heterocyclic compounds and methods of use” (F. Hoffmann-La Roche AG, priority 2011, dated 2014)

How the values were obtained:
p110 delta = target: T1, p110 delta (Homo sapiens, UniProt O00329); assay: PI3K isoform inhibition assay (fluorescence polarization), p110 delta; format: biochemical; conditions: p110 delta binding IC50, selected compounds from Table 1
T1 construct: purchased Upstate Group, Millipore; Dundee, UK
Protocol: PI3K enzymatic activity was assayed by measuring the amount of product phosphatidylinositol 3,4,5-phosphate (PIP3) formed from substrate 4,5 phosphatidylinositol 4,5-phosphate (PIP2) using a fluorescence polarization displacement assay. The decrease in fluorescence polarization of a fluorescent PIP3 probe is measured as it is displaced from a PIP3-binding protein GRP-1detector by PI3K-catalyzed product. Assays were conducted in 384-well black Proxiplates in the presence of 10 mM Tris (pH 7.5), 50 mM NaCl, 4 mM MgCl2, 5% glycerol, 25 μM ATP, 10 μM PIP2 (Echelon Biosciences), 0.05% 3-[(3-cholamidopropyl)dimethylammonio]-1-propanesulfonate, 1 mM dithiothreitol, and 2% DMSO. The kinase reactions were initiated by the addition of 40 ng/mL p110α/p85α, 300 ng/mL p110β/p85α, 40 ng/mL p110γ, or 40 ng/mL p110δ/p85α (Upstate Group, Millipore; Dundee, UK), and 10 μM PIP2 (Echelon Biosciences) to the wells. The reactions were stopped at timepoints that yielded a fixed change in fluorescence polarization consistent with initial rate conditions (typically 30 minutes), by the addition of 12.5 mM EDTA, 100 nM GRP-1 detector, and 5 nM tetramethylrhodamine-labeled PIP3 (TAMRA-PIP3; Echelon Biosciences). After 60 minutes of incubation at room temperature to allow equilibration of labeled and unlabeled PIP3 binding, the parallel and perpendicular components of the fluorescence emissions from each sample were measured at an excitation wavelength of 530 nm and an emission wavelength of 590 nm using an Envision fluorescent plate reader with a rhodamine filter (PerkinElmer Life and Analytical Sciences; Wellesley, Mass.). The assay is capable of detecting 0.1-2.0 μM PIP3 product. The IC50 values were obtained by fitting the dose-dependent inhibition data to a 4-parameter equation using Assay Explorer software (MDL, San Ramon, Calif.). […]
Recombinant PI3K p110 isoforms alpha, beta, and delta may be prepared and purified according to US 2008/0275067 from recombinant PI3K heterodimeric complexes consisting of a p110 catalytic subunit and a p85 regulatory subunit overexpressed using the BAC-TO-BAC® HT baculovirus expression system (GIBCO/BRL), and then purified for use in biochemical assays. The four Class I PI 3-kinases are cloned into baculovirus vectors as follows:
p110 delta: A FLAG™-tagged (Eastman Kodak Co., U.S. Pat. No. 4,703,004; U.S. Pat. No. 4,782,137; U.S. Pat. No. 4,851,341) version of human p110.delta (Chantry et al., J. Biol. Chem. (1997) 272:19236-41) is subcloned using standard recombinant DNA techniques into the BamHI-XbaI site of the insect cell expression vector pFastbac HTb (Life Technologies, Gaithersburg, Md.), such that the clone is in frame with the His tag of the vector.

[1] = test system: production of CD69 by B lymphocytes in human whole blood activated by crosslinking surface IgM; assay: CD69 human whole blood assay (Example 903), FACS; format: cell-based; conditions: Homo sapiens, Lymphocyte, B lymphocytes activated with goat F(ab')2 anti-human IgM, read-out: CD69 Hu Blood FACS IC50
Description: There is good evidence that B-cells play a key role in the pathogenesis of autoimmune and/or inflammatory disease. Protein-based therapeutics that deplete B cells such as Rituxan are effective against autoantibody-driven inflammatory diseases such as rheumatoid arthritis (Rastetter et al. (2004) Annu Rev Med 55:477). CD69 is the early activation marker in leukocytes including T cells, thymocytes, B cells, NK cells, neutrophils, and eosinophils. The CD69 human whole blood assay (Example 903) determines the ability of compounds to inhibit the production of CD69 by B lymphocytes in human whole blood activated by crosslinking surface IgM with goat F(ab′)2 anti-human IgM.

T1 sequence (O00329 whole entry, canonical isoform): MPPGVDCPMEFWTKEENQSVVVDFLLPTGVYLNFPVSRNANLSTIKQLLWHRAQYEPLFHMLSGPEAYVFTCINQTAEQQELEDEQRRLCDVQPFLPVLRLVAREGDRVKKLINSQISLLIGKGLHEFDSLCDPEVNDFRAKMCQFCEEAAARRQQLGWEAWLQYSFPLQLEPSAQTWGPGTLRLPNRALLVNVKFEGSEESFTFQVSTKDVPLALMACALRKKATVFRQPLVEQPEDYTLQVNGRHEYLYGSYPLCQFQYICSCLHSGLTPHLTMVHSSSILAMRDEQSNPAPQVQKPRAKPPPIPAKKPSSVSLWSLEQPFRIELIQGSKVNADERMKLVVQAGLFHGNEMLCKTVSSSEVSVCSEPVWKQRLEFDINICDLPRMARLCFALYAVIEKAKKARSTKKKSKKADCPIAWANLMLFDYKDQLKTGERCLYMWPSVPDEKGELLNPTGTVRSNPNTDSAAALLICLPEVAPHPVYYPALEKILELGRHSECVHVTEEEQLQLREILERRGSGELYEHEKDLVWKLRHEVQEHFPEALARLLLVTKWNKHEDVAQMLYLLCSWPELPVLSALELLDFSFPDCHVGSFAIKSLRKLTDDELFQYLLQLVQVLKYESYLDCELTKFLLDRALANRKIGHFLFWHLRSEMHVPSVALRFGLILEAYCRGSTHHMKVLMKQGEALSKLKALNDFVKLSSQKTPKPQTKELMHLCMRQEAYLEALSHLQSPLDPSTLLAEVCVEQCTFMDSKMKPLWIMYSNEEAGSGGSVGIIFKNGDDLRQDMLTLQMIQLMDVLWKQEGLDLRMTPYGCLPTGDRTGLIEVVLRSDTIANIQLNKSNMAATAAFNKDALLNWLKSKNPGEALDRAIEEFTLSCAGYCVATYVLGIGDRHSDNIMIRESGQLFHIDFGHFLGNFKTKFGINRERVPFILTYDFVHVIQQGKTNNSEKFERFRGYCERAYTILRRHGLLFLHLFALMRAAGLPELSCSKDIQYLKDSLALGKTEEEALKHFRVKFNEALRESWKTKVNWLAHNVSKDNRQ
T1 sequence (P27986 whole entry partner, canonical isoform): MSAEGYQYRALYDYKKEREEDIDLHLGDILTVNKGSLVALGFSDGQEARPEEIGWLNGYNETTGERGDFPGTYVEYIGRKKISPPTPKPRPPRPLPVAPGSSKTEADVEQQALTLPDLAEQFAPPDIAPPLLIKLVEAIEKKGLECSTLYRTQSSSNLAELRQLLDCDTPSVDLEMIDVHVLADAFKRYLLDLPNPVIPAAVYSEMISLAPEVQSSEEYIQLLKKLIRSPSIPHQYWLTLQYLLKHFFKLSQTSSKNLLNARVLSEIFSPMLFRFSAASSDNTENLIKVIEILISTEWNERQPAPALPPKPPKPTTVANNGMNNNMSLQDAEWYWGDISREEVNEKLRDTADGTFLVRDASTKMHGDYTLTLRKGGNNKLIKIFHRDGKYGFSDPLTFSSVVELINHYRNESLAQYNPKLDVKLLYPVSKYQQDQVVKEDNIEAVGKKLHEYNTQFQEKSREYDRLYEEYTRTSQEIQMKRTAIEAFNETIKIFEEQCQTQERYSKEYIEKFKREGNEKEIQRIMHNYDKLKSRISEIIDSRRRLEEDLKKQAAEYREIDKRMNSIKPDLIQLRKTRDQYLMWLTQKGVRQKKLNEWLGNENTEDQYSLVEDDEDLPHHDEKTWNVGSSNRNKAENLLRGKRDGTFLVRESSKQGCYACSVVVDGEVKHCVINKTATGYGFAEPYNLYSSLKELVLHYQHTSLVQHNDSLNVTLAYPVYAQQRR

Compound	IC50 (p110 delta) [nM]	IC50 [1] [nM]
Nc1ncnc2c1ccn2Cc1nc2ccccc2n1-c1ccccc1 [Example 139, 7-((1-phenyl-1H-benzo[d]imidazol-2-yl)methyl)-7H-pyrrolo[2,3-d]pyrimidin-4-amine]	302	
Cc1nn(Cc2nc3ccccc3n2-c2ccccc2)c2ncnc(N)c12 [Example 142, 3-methyl-1-((1-phenyl-1H-benzo[d]imidazol-2-yl)methyl)-1H-pyrazolo[3,4-d]pyrimidin-4-amine]	278	
C[C@H](Nc1ncnc(N)c1C#N)c1nc2ccc(F)c(C#N)c2n1-c1cncc(F)c1 [Example 347, 2-[(S)-1-(6-Amino-5-cyano-pyrimidin-4-ylamino)-ethyl]-5-fluoro-3-(5-fluoro-pyridin-3-yl)-3H-benzoimidazole-4-carbonitrile]		158
CC[C@H](Nc1ncnc(N)c1C#N)c1nc2ccc(F)cc2n1-c1cncc(F)c1 [Example 350, 4-Amino-6-{(S)-1-[6-fluoro-1-(5-fluoro-pyridin-3-yl)-1H-benzoimidazol-2-yl]-propylamino}-pyrimidine-5-carbonitrile]		83.9
C[C@H](Nc1ncnc(N)c1C#N)c1nc2ccc(F)cc2n1-c1ccncc1 [Example 354, 4-Amino-6-[(S)-1-(6-fluoro-1-pyridin-4-yl-1H-benzoimidazol-2-yl)-ethylamino]-pyrimidine-5-carbonitrile]		48.4
N#Cc1c(N)ncnc1NCc1nc2ccc(F)cc2n1-c1ccccc1 [Example 371, 4-amino-6-((6-fluoro-1-phenyl-1H-benzo[d]imidazol-2-yl)methylamino)pyrimidine-5-carbonitrile]		514
CC(C)N1CC(n2c([C@H](C)Nc3ncnc4[nH]cnc34)nc3ccc(F)cc32)C1 [Example 380, N-[(1S)-1-[6-fluoro-1-(1-isopropylazetidin-3-yl)benzimidazol-2-yl]ethyl]-9H-purin-6-amine]		58.2
C[C@H](Nc1ncnc2[nH]cnc12)c1nc2ccc(F)c(C(=O)N3CCOCC3)c2n1C1CC1 [Example 389, [3-cyclopropyl-5-fluoro-2-[(1S)-1-(9H-purin-6-ylamino)ethyl]benzimidazol-4-yl]-morpholino-methanone]		11.9
C[C@H](Nc1ncnc2[nH]cnc12)c1nc2ccc(F)cc2n1[C@H]1C[C@@H](O)C1 [Example 390, 3-[6-fluoro-2-[(1S)-1-(9H-purin-6-ylamino)ethyl]benzimidazol-1-yl]cyclobutanol]		146
C[C@H](Nc1ncnc(N)c1C#N)c1nc2ccc(F)c(C(=O)N3CCOCC3)c2n1C1CC1 [Example 401, 4-amino-6-[[(1S)-1-[1-cyclopropyl-6-fluoro-7-(morpholine-4-carbonyl)benzimidazol-2-yl]ethyl]amino]pyrimidine-5-carbonitrile]		23.2
C[C@H](Nc1ncnc(N)c1C#N)c1nc2ccc(F)cc2n1-c1ccn(C)n1 [Example 402, 4-amino-6-[[(1S)-1-[6-fluoro-1-(1-methylpyrazol-3-yl)benzimidazol-2-yl]ethyl]amino]pyrimidine-5-carbonitrile]		64.7
C[C@H](Nc1ncnc2[nH]cnc12)c1nc2ccc(F)cc2n1-c1ccn(C)n1 [Example 403, N-[(1S)-1-[6-fluoro-1-(1-methylpyrazol-3-yl)benzimidazol-2-yl]ethyl]-9H-purin-6-amine]		163
C[C@H](Nc1ncnc(N)c1C#N)c1nc2ccc(F)c3c2n1CCCC3 [Example 406, 4-Amino-6-[(S)-1-(5-fluoro-6,7,8,9-tetrahydro-2,9a-diazabenzo[cd]azulen-1-yl)ethylamino]pyrimidine-5-carbonitrile]		32.6
CC(C)n1c([C@H](C)Nc2ncnc(N)c2C#N)nc2ccc(F)c(-c3ccccn3)c21 [Example 408, 4-amino-6-[[(1S)-1-[6-fluoro-1-isopropyl-7-(2-pyridyl)benzimidazol-2-yl]ethyl]amino]pyrimidine-5-carbonitrile]		163
CC(C)n1c([C@H](C)Nc2ncnc3[nH]cnc23)nc2ccc(F)c(-c3ccccn3)c21 [Example 409, N-[(1S)-1-[6-fluoro-1-isopropyl-7-(2-pyridyl)benzimidazol-2-yl]ethyl]-9H-purin-6-amine]		64.2
C[C@H](Nc1ncnc(N)c1C#N)c1nc2ccc(F)c(-c3ccccn3)c2n1C [Example 411, 4-amino-6-[[(1S)-1-[6-fluoro-1-methyl-7-(2-pyridyl)benzimidazol-2-yl]ethyl]amino]pyrimidine-5-carbonitrile]		895
C[C@H](Nc1ncnc(N)c1C#N)c1nc2ccc(F)c(-c3ccccc3)c2n1C1CC1 [Example 415, 4-amino-6-[[(1S)-1-(1-cyclopropyl-6-fluoro-7-phenyl-benzimidazol-2-yl)ethyl]amino]pyrimidine-5-carbonitrile]		224
C[C@H](Nc1ncnc(N)c1C#N)c1nc2ccc(F)cc2n1-c1ccnn1C [Example 416, 4-amino-6-[[(1S)-1-[6-fluoro-1-(2-methylpyrazol-3-yl)benzimidazol-2-yl]ethyl]amino]pyrimidine-5-carbonitrile]		67.8
C[C@H](Nc1ncnc2[nH]cnc12)c1nc2ccc(F)cc2n1-c1ccnn1C [Example 417, N-[(1S)-1-[6-fluoro-1-(2-methylpyrazol-3-yl)benzimidazol-2-yl]ethyl]-9H-purin-6-amine]		140
C[C@H](Nc1ncnc(N)c1C#N)c1nc2ccc(F)cc2n1-c1cnn(C)c1 [Example 418, 4-amino-6-[[(1S)-1-[6-fluoro-1-(1-methylpyrazol-4-yl)benzimidazol-2-yl]ethyl]amino]pyrimidine-5-carbonitrile]		107
C[C@H](Nc1ncnc2[nH]cnc12)c1nc2ccc(F)cc2n1-c1cnn(C)c1 [Example 419, N-[(1S)-1-[6-fluoro-1-(1-methylpyrazol-4-yl)benzimidazol-2-yl]ethyl]-9H-purin-6-amine]		43.3
C[C@H](Nc1ncnc(N)c1C#N)c1nc2ccc(F)c(-c3ccccn3)c2n1C1CC1 [Example 442, 4-Amino-6-[(S)-1-(1-cyclopropyl-6-fluoro-7-pyridin-2-yl-1H-benzoimidazol-2-yl)ethylamino]-pyrimidine-5-carbonitrile]		797
Fc1ccc2nc(CNc3ncnc4[nH]cnc34)n(-c3ccccc3)c2c1 [Example 443, (6-Fluoro-1-phenyl-1H-benzoimidazol-2-ylmethyl)-(9H-purin-6-yl)amine]		> 5000
